Measurements taken from US10329310B2, “Arginase inhibitors and their therapeutic applications” (ONCOARENDI THERAPEUTICS S.A., priority 2014, dated 2019).
Where a name gives a salt, the structure may show the parent alone.

Target: recombinant human arginases 1 and 2
Assay: Human Arginase Activity Assay (urea measurement, colorimetric)
Format: biochemical
Settings: 37° C., 60 min, isoform not given, read-out: Activity Class (IC50)
Method: Human Arginase Activity Assay
The assay was run in the 96-well plate format, each reaction in the total volume of 100 ul. The assay is based on urea measurement, which is a product of L-arginine enzymatic degradation. (Baggio et al. J. Pharmacol. Exp. Ther. 1999, 290, 1409-1416). The color product is developed by adding a mixture of reagent A (10 mM o-phthaldialdehyde and 0.4% polyoxyethylene (23) lauryl ether (w/v) in 1.8 M sulfuric acid) and reagent B (1.3 mM primaquine diphosphate, 0.4% polyoxyethylene (23) lauryl ether (w/v), and 130 mM boric acid in 3.6 M sulfuric acid) in equal proportions. The absorbance for each well was measured at 530 nm and was referred to the concentration curve determined using urea as a standard.
Briefly, to each well of a 96-well microtiter plate 40 μL of enzyme, 50 μL of the test compound solution, and 10 μL of enzyme substrate solution (L-arginine+manganese chloride) was added. For positive control, only the enzyme and substrate was added, the negative controls contained only manganese chloride. After incubating the microtiter plate at 37° C. for 60 min, 150 μL of a urea reagent was added to each well to stop the reaction. After quenching the reaction mixture, the plate was left for 20 min at room temperature in order to allow color development. Absorbance was measured with Envision® Reader (Perkin-Elmer) (λ=530 nm).
The IC50 values were calculated using GraphPad Prism and divided into the following classes: […]

Structure (SMILES) | IC50 [nM]
CN(C)S(=O)(=O)N1CCC(C(N)(CCCCB(O)O)C(=O)O)CC1 (stereo not drawn) [Example 15, 2-Amino-6-borono-2-(1-(N,N-dimethylsulfamoyl)piperidin-4-yl)hexanoic acid hydrochloride] | 10000 to 100000
NC(CCCCB(O)O)(CNS(=O)(=O)NCc1ccccc1)C(=O)O (stereo not drawn) [Example 5, hydrochloride] | 1000 to 10000
CN(C)S(=O)(=O)NCC(N)(CCCCB(O)O)C(=O)O (stereo not drawn) [Example 4, 2-Amino-6-borono-2-(((N,N-dimethylsulfamoyl)amino)methyl)hexanoic acid hydrochloride] | 100 to 1000
CNS(=O)(=O)NCC(N)(CCCCB(O)O)C(=O)O (stereo not drawn) [Example 6, hydrochloride] | 100 to 1000
NC(=O)NCC(N)(CCCCB(O)O)C(=O)O (stereo not drawn) [Example 3, 2-Amino-6-borono-2-(ureidomethyl)hexanoic acid hydrochloride] | 10000 to 100000
CNC(CCCCB(O)O)(CNC(=N)N)C(=O)O (stereo not drawn) [Example 9, 6-Borono-2-(guanidinomethyl)-2-(methylamino)hexanoic acid dihydrochloride] | 1 to 100
CNC(=N)NCC(N)(CCCCB(O)O)C(=O)O (stereo not drawn) [Example 7, 2-Amino-6-borono-2-((3-methylguanidino)methyl)hexanoic acid hydrochloride] | 100 to 1000
NC(CCCCB(O)O)(C(=O)O)C1CCN(S(N)(=O)=O)CC1 (stereo not drawn) [Example 14, 2-Amino-6-borono-2-(1-sulfamoylpiperidin-4-yl)hexanoic acid hydrochloride] | 1000 to 10000
NC(CCCCB(O)O)(CCNS(N)(=O)=O)C(=O)O (stereo not drawn) [Example 12, hydrochloride] | 1000 to 10000
NC(CCCCB(O)O)(C(=O)O)C1CCN(S(=O)(=O)NCc2ccc(C(F)(F)F)cc2)CC1 (stereo not drawn) [Example 16, 2-Amino-6-borono-2-(1-(N-(4-(trifluoromethyl)benzyl)sulfamoyl)piperidin-4-yl)hexanoic acid hydrochloride] | 1000 to 10000
NC(CCCCB(O)O)(CCS(N)(=O)=O)C(=O)O (stereo not drawn) [Example 10, 2-Amino-6-borono-2-(2-sulfamoylethyl)hexanoic acid hydrochloride] | 1000 to 10000
CNC(CCCCB(O)O)(CNS(N)(=O)=O)C(=O)O (stereo not drawn) [Example 8, 6-Borono-2-(methylamino)-2-((sulfamoylamino)methyl)hexanoic acid hydrochloride] | 100 to 1000
